The values below come from ChEMBL document CHEMBL1201862, “PubChem BioAssay data set” (2004).

Some test systems named below: A549; HCT-15; NCI-H522; COLO 205; IGROV-1; OVCAR-4; RPMI-8226; BT-549; M14; NCI-H23; T47D; K562; KM12; A498; MCF7; SK-MEL-28; TK-10; HOP-92; HOP-62; SK-OV-3.
What all share (assay): growth of human tumour cells (NCI), 48 h

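A five-concentration, 48-hour dose response in 96-well plates underlies each endpoint, interpolated linearly between surrounding concentrations. The concentration for 50% growth inhibition is given as GI50.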 The source made the active and inactive calls. Cut-off read from the data, not from the text of the source: active = GI50 up to about 1.1 µM and inactive = higher.

For the compound `O=S(=O)(Cc1cnc(O)nc1O)Cc1cnc(O)nc1O`, the GI50 is > 100 µM (inactive) in the experiment on A549; above 100 µM in the experiment on HCT-15; > 100 µM (inactive) in the experiment with NCI-H522; > 100 µM (inactive) with COLO 205; > 100 µM (inactive) with IGROV-1; > 100 µM (inactive) with OVCAR-4. In addition, the GI50 in the experiment on RPMI-8226, in the experiment with BT-549, with M14, with NCI-H23, with T47D and in the experiment with K562 was > 100 µM (inactive) each time. Also, the GI50 with KM12, in the experiment with A498, with MCF7, in the experiment on SK-MEL-28, in the experiment with TK-10 and in the experiment on HOP-92 was > 100 µM (inactive) in each case.
For `O=C(CNC(c1ccccc1)(c1ccccc1)c1ccccc1)NC1CCCCC1NC(=O)CNC(c1ccccc1)(c1ccccc1)c1ccccc1` (stereo unspecified), the GI50 in the experiment with A549 is > 100 µM (inactive); with HOP-62, 27.8 µM (inactive); in the experiment on HCT-15 it was above 100 µM; with NCI-H522, > 100 µM (inactive); in the experiment with COLO 205, > 100 µM (inactive); in the experiment on IGROV-1, > 100 µM (inactive). The GI50 in the experiment with OVCAR-4, in the experiment with RPMI-8226, in the experiment on BT-549, with NCI-H23, with T47D and in the experiment with K562 was > 100 µM (inactive) in each case. The GI50 in the experiment on KM12, in the experiment with A498, in the experiment with MCF7, in the experiment on SK-MEL-28, with TK-10 and with SK-OV-3 was > 100 µM (inactive) in each case. Moreover, the GI50 in the experiment with HOP-92 was 12 µM (inactive).
Consider `Nc1nc(Cl)cc(NCC2(O)CCCC2)n1`, for which the GI50 in the experiment on A549 is > 100 µM (inactive); in the experiment on HOP-62, > 100 µM (inactive); with HCT-15 it was above 100 µM; with NCI-H522, > 100 µM (inactive); in the experiment on COLO 205, > 100 µM (inactive); in the experiment on IGROV-1, > 100 µM (inactive). Besides, the GI50 with OVCAR-4, with RPMI-8226, with BT-549, in the experiment with NCI-H23, in the experiment on T47D and in the experiment on K562 was > 100 µM (inactive) each time. Further, the GI50 in the experiment on KM12, with A498, in the experiment with MCF7, in the experiment with SK-MEL-28, in the experiment with TK-10 and in the experiment with SK-OV-3 was > 100 µM (inactive) throughout. For the same compound, in the experiment with HOP-92, the GI50 was > 100 µM (inactive).
In the case of `CCO/N=C(/CC)c1ccc(Br)s1`, the GI50 in the experiment with A549 is > 100 µM (inactive); with HOP-62, > 100 µM (inactive); with HCT-15, above 100 µM; with NCI-H522, > 100 µM (inactive); in the experiment on COLO 205 it was > 100 µM (inactive); in the experiment with IGROV-1, > 100 µM (inactive). In addition, the GI50 in the experiment with OVCAR-4, in the experiment with BT-549, with M14, with NCI-H23, in the experiment with T47D and with K562 was > 100 µM (inactive) each time. Moreover, the GI50 in the experiment on KM12, with A498, in the experiment on MCF7, in the experiment with SK-MEL-28, with TK-10 and with SK-OV-3 was > 100 µM (inactive) each time. The GI50 in the experiment with HOP-92 is > 100 µM (inactive).
On to `CC[C@]1(c2ccc3c(c2)OCO3)C=[N+]([O-])O[C@H](OC2CCCC2(c2ccccc2)c2ccccc2)[C@@H]1OC(C)=O` (stereo partly specified), for which the GI50 with A549 was 2.63 µM (inactive); in the experiment with HOP-62, 2.08 µM (inactive); in the experiment with HCT-15, 2.26 µM; in the experiment on NCI-H522, 1.77 µM (inactive); in the experiment on COLO 205, 2.23 µM (inactive); in the experiment with IGROV-1, 1.94 µM (inactive). The GI50 with OVCAR-4 is 2.62 µM (inactive); in the experiment on BT-549, 2.53 µM (inactive); in the experiment with M14, 2.28 µM (inactive); in the experiment on NCI-H23, 2.48 µM (inactive); in the experiment on T47D it was 2.09 µM (inactive); in the experiment with K562, 2.36 µM (inactive). The GI50 with KM12 is 1.77 µM (inactive); in the experiment with A498, 1.27 µM (inactive); in the experiment on MCF7, 2.47 µM (inactive); in the experiment with SK-MEL-28, 2.12 µM (inactive); in the experiment on TK-10, 3.27 µM (inactive); with SK-OV-3, 3.01 µM (inactive). For the same compound, the GI50 with HOP-92 was 2.09 µM (inactive).
With `C[C@@]12C[C@@H](c3ccccc3O1)N1Cc3ccccc3CSC1=N2`, the GI50 was > 100 µM (inactive) with HOP-62; 37.3 µM in the experiment with HCT-15; 49.7 µM (inactive) in the experiment on NCI-H522; 35.2 µM (inactive) with COLO 205; > 100 µM (inactive) in the experiment on IGROV-1; 66.1 µM (inactive) in the experiment on OVCAR-4. Moreover, the GI50 was > 100 µM (inactive) in the experiment on RPMI-8226; 95.9 µM (inactive) in the experiment with BT-549; 90.4 µM (inactive) in the experiment with M14; > 100 µM (inactive) with NCI-H23; 72.9 µM (inactive) with T47D; 64.9 µM (inactive) in the experiment on K562. The GI50 with KM12 was > 100 µM (inactive); in the experiment with A498 it was > 100 µM (inactive); in the experiment with MCF7, 50.4 µM (inactive); in the experiment with SK-MEL-28, > 100 µM (inactive); in the experiment on TK-10, 57.7 µM (inactive); with SK-OV-3 it was > 100 µM (inactive). Also, in the experiment with HOP-92, the GI50 was > 100 µM (inactive).
For the compound `C/C=C1/CN2CCC34C(=C(C(=O)OC)C1CC23)Nc1ccc(O)cc14` (stereo unspecified), the GI50 was > 100 µM (inactive) with A549; above 100 µM in the experiment on HCT-15; > 100 µM (inactive) with NCI-H522; > 100 µM (inactive) in the experiment on COLO 205; > 100 µM (inactive) with IGROV-1; > 100 µM (inactive) with OVCAR-4. In addition, the GI50 in the experiment on RPMI-8226, with BT-549, in the experiment on M14, in the experiment on NCI-H23, with T47D and with KM12 was > 100 µM (inactive) each time. For the same compound, the GI50 in the experiment on A498, in the experiment with MCF7, in the experiment on SK-MEL-28, with TK-10, with SK-OV-3 and in the experiment on HOP-92 was > 100 µM (inactive) each time.
On to `CSc1c(C#N)c(N)n2c1C(=O)N(c1ccccc1)C2=S`, for which the GI50 in the experiment on A549 was > 100 µM (inactive); with HOP-62, 63 µM (inactive); in the experiment on HCT-15, above 100 µM; in the experiment with NCI-H522, 21.2 µM (inactive); with COLO 205 it was 30 µM (inactive); in the experiment with IGROV-1 it was 41.7 µM (inactive). Also, the GI50 was 26.5 µM (inactive) in the experiment with OVCAR-4; > 100 µM (inactive) in the experiment with BT-549; > 100 µM (inactive) with M14; 28.2 µM (inactive) in the experiment on NCI-H23; 52.6 µM (inactive) with T47D; > 100 µM (inactive) in the experiment with K562. Moreover, the GI50 in the experiment with KM12 was 51.5 µM (inactive); in the experiment on A498, 23 µM (inactive); in the experiment on MCF7, > 100 µM (inactive); in the experiment on SK-MEL-28, > 100 µM (inactive); in the experiment on TK-10, > 100 µM (inactive); in the experiment on SK-OV-3 it was 91.6 µM (inactive). Besides, the GI50 with HOP-92 was 31.3 µM (inactive).
For `CCOC(=O)C(Cc1ccc(N(CCCl)CCCl)cc1)NC(=O)C(Cc1ccccc1)NC=O` (stereo unspecified), the GI50 is 0.431 µM (active) with A549; 0.274 µM (active) in the experiment on HOP-62; 0.29 µM in the experiment on HCT-15; 0.117 µM (active) in the experiment with NCI-H522; 0.197 µM (active) with COLO 205; 0.0492 µM (active) in the experiment with IGROV-1. The GI50 in the experiment with OVCAR-4 was 0.0208 µM (active); in the experiment on RPMI-8226, 0.187 µM (active); in the experiment on BT-549, 0.437 µM (active); in the experiment on M14, 0.102 µM (active); with NCI-H23 it was 0.00906 µM (active); with T47D it was 0.092 µM (active). Also, the GI50 in the experiment with K562 is 0.188 µM (active); with KM12, 0.48 µM (active); in the experiment on A498, 0.273 µM (active); with MCF7, 0.143 µM (active); in the experiment on TK-10 it was 0.157 µM (active); in the experiment on SK-OV-3, 0.475 µM (active). The GI50 with HOP-92 was 0.126 µM (active).
For `O=S1(=O)c2ccccc2N(c2ccccc2)c2nnnn21`, the GI50 with A549 is 33.4 µM (inactive); with HOP-62, 21 µM (inactive); with HCT-15 it was 12.6 µM; with NCI-H522 it was 17.6 µM (inactive); in the experiment on COLO 205, 22.5 µM (inactive); with IGROV-1, 32.3 µM (inactive). Also, the GI50 with OVCAR-4 was 16.7 µM (inactive); in the experiment with BT-549 it was 22.8 µM (inactive); in the experiment with M14, 20.9 µM (inactive); in the experiment with NCI-H23, 28.5 µM (inactive); in the experiment with T47D it was 31.8 µM (inactive); in the experiment on K562 it was 29.4 µM (inactive). The GI50 with KM12 is 29.4 µM (inactive); in the experiment with A498 it was 23.6 µM (inactive); with MCF7 it was 36.6 µM (inactive); in the experiment with SK-MEL-28 it was 22.4 µM (inactive); in the experiment on TK-10 it was 38.5 µM (inactive); in the experiment on SK-OV-3 it was 42.3 µM (inactive). Also, the GI50 in the experiment on HOP-92 is 35 µM (inactive).
Regarding `CC(C)C[C@H](NC(=O)[C@@H](N)Cc1cccc2ccccc12)B(O)O`, the GI50 in the experiment with A549 is 0.0766 µM (active); in the experiment on HOP-62, 0.0575 µM (active); in the experiment on HCT-15, 0.033 µM; in the experiment on NCI-H522, 0.187 µM (active); in the experiment on COLO 205 it was 0.0417 µM (active); with IGROV-1, 0.0665 µM (active). Also, the GI50 in the experiment on OVCAR-4 is 0.232 µM (active); in the experiment on RPMI-8226 it was < 0.0164 µM (active); with BT-549, 0.0203 µM (active); in the experiment on NCI-H23 it was 0.0249 µM (active); with T47D it was 0.0168 µM (active); in the experiment on KM12, 0.0281 µM (active). Besides, the GI50 in the experiment on A498 was < 0.0189 µM (active); with MCF7, < 0.0232 µM (active); in the experiment on SK-MEL-28 it was < 0.0149 µM (active); in the experiment on TK-10 it was < 0.0182 µM (active); with SK-OV-3, 0.0703 µM (active); in the experiment on HOP-92, 0.398 µM (active).
